Laboratory results published in patent US7754202B1, “Methods of controlling cell differentiation and growth using a fusion protein and a drug” (Stanford University, priority 1998, dated 2010).

Key:
[1] = system: CD34+ cells from human cord blood transduced with dimerizer-responsive c-mpl signaling domain; assay: Amplification and erythroid differentiation of MFM-transduced human cord blood CD34+ cells; assay type: cell-based
Description: CD34+ cells were selected from human cord blood and transduced with a PG13-packaged, MSCV-based retrovirus vector encoding a dimerizer-responsive version of the c-mpl signaling domain (MFM, as described in Example 7, see FIG. 4). […] This finding was reproducible, occurring in each of four separate experiments.

[2] = system: Ba/F3 cell lines expressing gp130 signaling domain fused to FKBP12 domains; assay: Proliferation of Ba/F3 cell lines expressing gp130-FKBP12 fusion proteins; assay type: cell-based
Description: Expression cassettes encoding fusion proteins containing the signaling domains of the gp130 fused to one, two or three copies of the FKBP12 domain were used to generate stably transfected Ba/F3 cell lines. The complexes that can be assembled in response to FK1012 differ for the various fusion proteins. In the presence of FK1012, fusion proteins containing a single FKBP domain are limited to simple dimerization, whereas proteins containing two or more FKBP domains can form both dimers and oligomers.
In one illustrative experiment, an MSCV-based expression vector was constructed that contained two FKBP12 domains.

cells = assay: Immunosuppressive activity or other toxicity to cells; assay type: cell-based; conditions: in experiments to date
[3] = Solubility in aqueous culture medium; assay type: physicochemical; conditions: aqueous buffer, serial dilution in culture medium, read-out: highest concentration ensuring complete solubility in the (aqueous) medium
Experimental: Working concentrations of AP1510 can be obtained by adding compound directly from ethanol stocks, or by diluting serially in culture medium just before use. In the latter case it is recommended that the highest concentration not exceed 5 uM, to ensure complete solubility in the (aqueous) medium. In either case, the final concentration of ethanol in the medium added to mammalian cells should be kept below 0.5% (a 200-fold dilution of a 100% ethanol solution) to prevent detrimental effects of the solvent on the cells.

[4] = system: clonogenic progenitor cells (CFU-C) of MSCVF1mpl-transduced marrow; assay: CFU-C assays during suspension culture, with or without G418; assay type: cell-based, murine
Experimental: FIG. 3: CFU-C assays at various time points during suspension culture. Cells were harvested on the days indicated and cultured in semisolid media (Blau, et al. Hum. Gen. Ther. 7:2069, 1996) either in the presence or absence of G418. The concentration of G418, […], was sufficient to prevent the growth of nontransduced cells (data not shown). Dark bars: CFU-C numbers in the absence of G418; Light bars: CFU-C numbers in the presence of G418. (A) No FK1012, no FL; (B) FK1012 alone; (C) FL alone; (D) FK1012 plus FL. Note that FK1012-mediated CFU-C expansion markedly favors the genetically modified cell population.
To determine whether FK1012 is capable of stimulating expansion among clonogenic progenitor cells, progenitors were assayed at various time points of culture as colony forming unit cells (CFU-C). As the MSCVF1mpl vector incorporates a neo gene. (Hawley, et al. Gene Ther. 1:136, 1994), the frequency of genetically modified progenitors is reflected in the frequency of G418 resistant CFU-C. […] By day 28 CFU-C had fallen to undetectable levels (FIG. 3A). In contrast, in the presence of FK1012 an almost 600,000-fold expansion in CFU-C was observed by day 42 (FIG. 3B). […] Of note is that while granulocytes were virtually absent after 42 days in suspension culture in the presence of FK1012 alone, CFU-C progeny derived from these cultures contained large numbers of granulocytes. […]

G418 resistant CFU-C = assay: FK1012-mediated selection of genetically modified CFU-C in a mixed transduced/non-transduced marrow population; assay type: cell-based, murine; conditions: mixed transduced and non-transduced marrow
Description: In order to determine whether FK1012 is capable of specifically delivering a mitogenic signal to a minor population of genetically modified CFU-C, marrow cells cocultivated with the MSCVF1mpl producer cell line were mixed with marrow cells cocultivated with the parental packaging cell line. The frequency of G418 CFU-C arising from this mixed population of transduced and non-transduced cells was 35%.
The numbers in Table 4 indicate the fraction of G418 resistant CFU-C.

transduced marrow cells = assay: Reversibility of FK1012-dependent cell proliferation after 28 days of culture; assay type: cell-based, murine
Experimental: For the experiments whose results are shown in Table 3, after 28 days of culture in FK1012 (100 nM), transduced marrow cells were washed extensively and cultured in suspension in the presence (+) or absence (−) of FK1012. The numbers in Table 3 indicate the number of cells per well×10^−5.

[5] = system: murine bone marrow cells transduced with MSCVF1mpl; assay: Suspension culture of MSCVF1mpl-transduced bone marrow cells (cell numbers, cell types); assay type: cell-based
Experimental: FIG. 2: FK1012 stimulates expansion of genetically modified bone marrow cells. Following retroviral transduction, marrow cells were cultured in IMDM containing 10% FCS, 50 U/ml penicillin, […] streptomycin either in the presence or absence of FK1012 (100 nM) or flt-3 ligand (Peprotech-100 ng/ml), in a 37°, 5% CO2, incubator. Cell numbers were determined on the days indicated. Open diamonds: No FK1012, no FL; Closed diamonds: FK1012 alone; Open circles: FL alone; Closed circles: FK1012 plus FL. Note that X axis is on a logarithmic scale.
Forty-eight hours following administration of 150 mg/kg 5-fluorouracil (5-FU), marrow cells were harvested from B6D2F1 mice and cultured for 48 hours in Dulbecco's Modified Eagle's Medium containing 16% fetal calf serum (Intergen), 5% IL3-conditioned medium (Stem Cell Technologies), 100 ng/ml recombinant human IL6 and 50 ng/ml recombinant murine stem cell factor in a 37° C., 5% CO2 incubator. After 48 hours, cells were transferred onto irradiated (1500 cGy) producer cells and cocultivated using the same growth conditions except for the addition of polybrene ([…]). Marrow cells were harvested after 48-hours of cocultivation.
In order to test whether the pharmacological activation of mpl is capable of driving proliferation in genetically modified bone marrow cells, the F1mpl construct was inserted into the retroviral vector MSCV-neoEB (Hawley, et al. Gene Ther. 1:136, 1994). The resulting construct, MSCVF1mpl, was used to generate a stable, high titer, helper virus-free ecotropic producer cell line as described above. Supernatant from the producer cell line was capable of conferring G418 resistance and FK1012 responsiveness in transduced Ba/F3 cell clones (FIG. 1C). Gene transfer into murine bone marrow cells was performed by cocultivation, and transduced marrow cells were tested in suspension culture for the capacity to respond to FK1012. In one set of cultures, FK1012's effects were evaluated in the absence of added growth factors. […] Cell numbers were determined at various time points of culture (FIG. 2). In the absence of drug or added growth factors, all cells died over a period of 7-14 days. […] In contrast, FK1012 dramatically stimulated cell proliferation. The proliferative effect of FK1012 was apparent within 5 days of culture, and has persisted for longer than 49 days without evidence of decline. […] By 42 days of culture FK1012 had induced a greater than 2.5 million-fold expansion in cell numbers.
The types of cells emerging in response to FK1012 differed at varying time points of culture. […] Similar results were obtained in a second experiment.

[6] = gp130 chimeric proteins containing a single FKBP12 domain
[7] = gp130 fusion proteins with two or three FKBP12 domains
[8] = FK1012 100 nM, suspension culture

## CC[C@H](C(=O)N1CCCC[C@H]1C(=O)O[C@H](CCc1ccc(OC)c(OC)c1)c1cccc(OCC(=O)NCCNC(=O)COc2cccc([C@@H](CCc3ccc(OC)c(OC)c3)OC(=O)[C@@H]3CCCCN3C(=O)[C@@H](CC)c3cc(OC)c(OC)c(OC)c3)c2)c1)c1cc(OC)c(OC)c(OC)c1 [AP1903]
[1]; by day 15 of culture
  cells expressing glycophorin: 90%
[1]; in the absence of added cytokines
  expansion in total cell numbers: 175-350 fold
[2]; MSCV construct, gp130 with two modified FKBP12 domains, Ba/F3 cells
  cell proliferation: vigorous AP1903-dependent cell proliferation

## CCC(C)(C)C(=O)C(=O)N1CCCC[C@H]1C(=O)O[C@H](CCc1ccc(OC)c(OC)c1)c1cccc(OCC(=O)NCCNC(=O)COc2cccc([C@@H](CCc3ccc(OC)c(OC)c3)OC(=O)[C@@H]3CCCCN3C(=O)C(=O)C(C)(C)CC)c2)c1 [AP1510]
cells
  immunosuppressive activity or other toxicity to cells: no immunosuppressive activity or other toxicity to cells
[3]
  solubility: ≤ 5 µM
[2]; [6]
  proliferative response: minimal proliferative response
[2]; [7]
  proliferative response: vigorous proliferative responses

## FK1012
[4]; by day 42, FK1012 alone
  expansion in CFU-C: ~600,000 fold
G418 resistant CFU-C; day 0 in culture
  fraction of G418 resistant CFU-C: 0.35
G418 resistant CFU-C; day 7 in culture
  fraction of G418 resistant CFU-C: 0.96
Transduced marrow cells; absence (−) of FK1012 after 28 days in FK1012 and washing, day 0
  number of cells per well: 5 10^5 cells per well
Transduced marrow cells; absence (−) of FK1012 after 28 days in FK1012 and washing, day 7
  number of cells per well: 0.59 10^5 cells per well
Transduced marrow cells; absence (−) of FK1012 after 28 days in FK1012 and washing, day 14
  number of cells per well: .09 cells per well×10^−5
Transduced marrow cells; cells cultured 28 days in FK1012, then withdrawal or re-addition
  reversibility of proliferative effect: withdrawal of FK1012 was followed promptly by cell death
Transduced marrow cells; presence (+) of FK1012, day 0 in culture
  number of cells per well: 5 10^5 cells per well
Transduced marrow cells; presence (+) of FK1012, day 7 in culture
  number of cells per well: 36 10^5 cells per well
Transduced marrow cells; presence (+) of FK1012, day 14 in culture
  number of cells per well: 1283 10^5 cells per well
[2]; [6]
  proliferative response: minimal proliferative response
[2]; [7]
  proliferative response: lesser proliferative responses
In vivo half life
  in vivo half life: less than one
[5]; [8]
  persistence of proliferative effect without evidence of decline: > 49 days
  time until proliferative effect apparent: ≤ 5 days
[5]; by 42 days of culture, FK1012 100 nM
  expansion in cell numbers: greater than 2.5 million
[5]; first two weeks of culture in FK1012
  types of cells emerging: mature granulocytes and macrophages predominated, while megakaryocytes were rare
[5]; later time points of culture in FK1012
  types of cells emerging: megakaryocytes emerged as the dominant phenotypically identifiable cell population

B1: FL: flt-3 ligand (Peprotech), growth factor used at 100 ng/ml (protein, UniProt P49771 27-235, looked up)
Fms-related tyrosine kinase 3 …: TQDCSFQHSPISSDFAVKIRELSDYLLQDYPVTVASNLQDEELCGGLWRLVLAQRWMERLKTVAGSKMQGLLERVNTEIHFVTKCAFQPPPSCLRFVQTNISRLLQETSEQLVALKPWITRQNFSRCLELQCQPDSSTLPPPWSPRPLEATAPTAPQPPLLLLLLLPVGLLLLAAAWCLHWQRTRRRTPRPGEQVPPVPSPQDLLLVEH
[4]; FL alone, transient, without preference for the transduced population
  expansion in CFU-C: seven
G418 resistant CFU-C; day 0 in culture
  fraction of G418 resistant CFU-C: 0.35
G418 resistant CFU-C; day 7 in culture
  fraction of G418 resistant CFU-C: 0.14
[5]; FL alone
  cell survival in suspension culture: all cells died by day 28
[5]; FL alone (100 ng/ml), between 9 and 12 days of suspension culture
  expansion in cell numbers: three
